Ten compounds from patent US20080161232A1, “C5a Receptor Antagonist” (JERINI AG, priority 2005, published 2008) can be followed below.

SMILES strings stand for the structures. Starred links: 1 amine or outer side, 2 acyl side, 3 side chain; linkers in the order of their positions; H or OH if unused. Positions of bridges follow the written chain, without caps; N, C: chain ends. Non-standard residues stand in square brackets, D forms with d. Residues, ends and D or L forms follow the SMILES beside them. *: point of attachment. Phe(4-guanidino) = N=C(N)Nc1ccc(C[C@H](N)C(=O)O)cc1; Phe(2,4-Cl2) = N[C@@H](Cc1ccc(Cl)cc1Cl)C(=O)O; Phe(4-F) = N[C@@H](Cc1ccc(F)cc1)C(=O)O; Bta = N[C@@H](Cc1csc2ccccc12)C(=O)O; Hyp = O=C(O)[C@@H]1C[C@@H](O)CN1; d(hLeu) = CC(C)CC[C@@H](N)C(=O)O; Cit = NC(=O)NCCC[C@H](N)C(=O)O; dCha = N[C@H](CC1CCCCC1)C(=O)O; NHCH2CH(OH)CH2OH = OCC(O)CN*; Nle = CCCC[C@H](N)C(=O)O; Orn = NCCC[C@H](N)C(=O)O; Aze = O=C(O)[C@@H]1CCN1; X13 = c1ccc2c(c1)nnn2C*; NBuGly = CCCCNCC(=O)O; CO = O=C([*:1])[*:2]; tBu = CC(C)(C)*

In this experiment the target is T1, human C5aR(CD88) (Homo sapiens, UniProt P21730).
T1 construct: expressed in transfected cells; host or cells: rat basophilic leukemia cells (RBL)
T1 sequence (P21730 1-350): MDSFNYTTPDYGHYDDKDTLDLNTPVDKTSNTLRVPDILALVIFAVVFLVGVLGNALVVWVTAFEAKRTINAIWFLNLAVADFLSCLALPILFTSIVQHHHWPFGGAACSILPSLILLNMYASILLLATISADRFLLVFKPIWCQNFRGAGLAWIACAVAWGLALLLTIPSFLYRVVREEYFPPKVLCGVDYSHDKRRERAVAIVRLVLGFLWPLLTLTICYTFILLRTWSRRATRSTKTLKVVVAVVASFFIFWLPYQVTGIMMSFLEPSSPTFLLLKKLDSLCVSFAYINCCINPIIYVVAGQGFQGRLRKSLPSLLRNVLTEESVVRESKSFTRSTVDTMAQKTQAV
The experiment can be described thus: Determination of the IC50 value in an enzyme release assay (functional assay, antagonistic activity). The format is cell-based. The conditions noted are these: antagonistic activity; IC50 group in enzyme release assay, RBL cells expressing human C5aR(CD88); read-out: activity (group).
As for `CCCC[C@@H]1NC(=O)[C@H](Cc2c[nH]c3ccccc23)NC(=O)[C@@H](CSC(C)(C)C)NC(=O)[C@@H]2C[C@@H](O)CN2C(=O)[C@@H](NC(=O)[C@@H](N)Cc2ccccc2)CCCNC1=O` [Compound 359, H-Phe-[Orn-Hyp-ctb-Trp-Nle]] (H-F[Orn][Hyp][dC](tBu)W[Nle]; lactam 2-C), the IC50 was 20 to 50 nM.

As for `CC(=O)N[C@@H](Cc1ccccc1)C(=O)N[C@@H](CCCNC(N)=O)C(=O)N1CCC[C@H]1C(=O)N[C@H](CCC(C)C)C(=O)N[C@@H](Cc1csc2ccccc12)C(=O)N[C@@H](Cc1ccccc1)C(N)=O` [Compound 211, Ac-Phe-Cit-Pro-hle-Bta-Phe-NH2] (Ac-F[Cit]P[d(hLeu)][Bta]F-NH2), the IC50 was 20 to 50 nM.

For the compound `CC(=O)N[C@@H](Cc1ccccc1)C(=O)N[C@H]1CCCNC(=O)[C@H](Cc2ccccc2)NC(=O)[C@H](Cc2c[nH]c3ccccc23)NC(=O)[C@@H](CCC(C)C)NC(=O)[C@@H]2C[C@@H](O)CN2C1=O` [Compound 181, Ac-Phe-[Orn-Hyp-hle-Trp-Phe]] (Ac-F[Orn][Hyp][d(hLeu)]WF; lactam 2-C), the IC50 is 20 to 50 nM.

For `CC(=O)N[C@@H](Cc1ccccc1)C(=O)N[C@@H](CSCn1nnc2ccccc21)C(=O)N1CCC[C@H]1C(=O)N[C@H](CC1CCCCC1)C(=O)N[C@@H](Cc1csc2ccccc12)C(=O)N[C@@H](Cc1ccccc1)C(N)=O` [Compound 119, Ac-Phe-Eec-Pro-cha-Bta-Phe-NH2] (Ac-FC(X13)P[dCha][Bta]F-NH2), the IC50 was 50 to 200 nM.

Take `O=C(NCC(O)CO)N[C@@H](Cc1ccccc1)C(=O)N[C@H]1CCCNC(=O)[C@H](Cc2ccccc2)NC(=O)[C@H](Cc2c[nH]c3ccccc23)NC(=O)[C@@H](CC2CCCCC2)NC(=O)[C@@H]2C[C@@H](O)CN2C1=O` (stereo partly drawn) [Compound 336, Fhb-[Phe-Orn-Hyp-cha-Trp-Phe]] ({NHCH2CH(OH)CH2OH-CO}-F[Orn][Hyp][dCha]WF; lactam 2-C): the IC50 is 50 to 200 nM.

Turning to `CCCC[C@@H]1NC(=O)[C@H](Cc2ccc(F)cc2)NC(=O)[C@@H](CSC(C)(C)C)NC(=O)[C@@H]2C[C@@H](O)CN2C(=O)[C@@H](NC(=O)[C@@H](N)Cc2ccccc2)CCCNC1=O` [Compound 358, H-Phe-[Orn-Hyp-ctb-Pff-Nle]] (H-F[Orn][Hyp][dC](tBu)[Phe(4-F)][Nle]; lactam 2-C), the IC50 is 50 to 200 nM.

As to `CC(=O)N[C@@H](Cc1ccc(NC(=N)N)cc1)C(=O)N[C@@H](Cc1ccccc1)C(=O)N[C@@H](CCCN)C(=O)N1CC[C@H]1C(=O)N[C@H](CC1CCCCC1)C(=O)N[C@@H](Cc1csc2ccccc12)C(=O)N[C@@H](Cc1ccccc1)C(N)=O` [Compound 140, Ac-Guf-Phe-Orn-Aze-cha-Bta-Phe-NH2] (Ac-[Phe(4-guanidino)]F[Orn][Aze][dCha][Bta]F-NH2), the IC50 was 50 to 200 nM.

On to `CC(=O)N[C@@H](Cc1ccccc1)C(=O)N[C@@H](CCCN)C(=O)N1CCC[C@H]1C(=O)N[C@H](CCC(C)C)C(=O)N[C@@H](Cc1csc2ccccc12)C(=O)N[C@@H](Cc1ccc(Cl)cc1Cl)C(N)=O` [Compound 277, Ac-Phe-Orn-Pro-hle-Bta-Egy-NH2] (Ac-F[Orn]P[d(hLeu)][Bta][Phe(2,4-Cl2)]-NH2), for which the IC50 fell in the range of 50 to 200 nM.

Consider `CC(=O)N[C@@H](Cc1ccccc1)C(=O)N[C@@H](CCCN)C(=O)N1C[C@H](O)C[C@H]1C(=O)N[C@H](CCC(C)C)C(=O)N[C@@H](Cc1csc2ccccc12)C(=O)N[C@@H](Cc1ccccc1)C(N)=O` [Compound 244, Ac-Phe-Orn-Hyp-hle-Bta-Phe-NH2] (Ac-F[Orn][Hyp][d(hLeu)][Bta]F-NH2), for which the IC50 lay within 50 to 200 nM.

For the compound `CCCCN(CC(=O)N1CCC[C@H]1C(=O)N[C@H](CC1CCCCC1)C(=O)N[C@@H](Cc1c[nH]c2ccccc12)C(=O)N[C@@H](Cc1ccccc1)C(N)=O)C(=O)[C@H](Cc1ccccc1)NC(C)=O` [Compound 148, Ac-Phe-N(nBu)-CH2—CO-Pro-cha-Trp-Phe-NH2] (Ac-F[NBuGly]P[dCha]WF-NH2), the IC50 was in the range of 200 to 2000 nM.
